Data taken from US20230331676A1, “NAPHTHYLUREA COMPOUND, METHODS OF PREPARATION AND USE THEREOF” (Henan Radiomedical Science and Technology Co., Ltd., priority 2021, published 2023).

Assays:
Type in all cases: cell-based
[1] = tested on: tumor cells such as breast cancer (MDA-MB-468) and liver cancer (HepG2); assay: MTT assay, inhibition of tumor cell proliferation; details: 48 h, compared with positive control WP1066, IC50 values only in FIG. 1
Experimental: Tumor cells in logarithmic growth phase were collected; the cell suspension was diluted to a density of 5×10^4 cells/mL; 100 uL of the cell suspension was transferred to each hole of a 96-well plate; DMSO was used as a solvent for negative control; (2E)-3-(6-bromo-2-pyridyl)-2-cyano-N-[(1S)-1-phenylethyl]-2-acrylamide (WP1066CAS: 857064-38-1, with a formula
was used as a positive control; the naphthylurea compounds IY210216D-1, ID210203C-1 and IY210316B-1 were diluted with DMSO and added into the 96-well plate to a final concentration of 0.1, 0.3, 1, 3, 10, 30, 100 and 300 μmol/L; the 96-well plate was incubated for 48 h; 10 μL of MTT solvent (5 mg/mL) was added into each well; the 96-well plate was incubated at 37° C. for 4 h; a culture supernatant was discarded; 150 μL of DMSO was added into each well; the 96-well plate was shaken for 10 min on a plate shaker; an optical density (OD) of the resulting product was measured at a wavelength of 490 nm by an ELISA reader. Test results were recorded. A cell growth curve was drawn with the dosage of each compound as abscissa and the absorbance value as ordinate. The statistical results of the half inhibition rate (IC50 value) of tumor cells by the compounds IY210216D-1, ID210203C-1 and IY210316B-1 were shown in FIG. 1.

[2] = tested on: JAK2/STAT3 signal axis in MDA-MB-468 or HepG2 cells; assay: Western blot of JAK2/STAT3 signal axis protein expression; details: MDA-MB-468 (0, 0.5, 1 μM) or HepG2 (0-8 μM), 48 h, vs solvent control; dose-dependent
Experimental: MDA-Mb-468 or HepG2 cells in logarithmic growth phase were inoculated in a 6-well plate, with 8×10^5 cells per well. After cell adhesion, the compound ID210203C-1 was added until a final concentration thereof was 0, 0.5, 1 or 0, 0.5, 1, 2, 4 and 8 μM respectively. After about 48 hours, the cells were lysed with RIPA lysate and proteins were collected for Western blot analysis. The protein expressions were respectively detected through the anti-JAK2, p-JAK2, STAT3, p-STAT3, CyclinD1, p-AKT, p-ERK and β-actin antibodies.

[3] = tested on: HepG2 cells; assay: Cell cycle distribution by flow cytometry (PI), HepG2; details: hepatoma cells (HepG2), 2, 4, 8 μM, 48 h, vs DMSO
Experimental: (§1) MDA-MB-468 or HepG2 cells were harvested during log phase, digested, centrifuged and prepared into a single cell suspension; the number of the cells in the single cell suspension was counted; the cells were seeded into a 12-well plate, with 2×10^5 cells per well; three wells were used as a parallel control design; 16 hours after seeding, the cells were treated with the compounds. With DMSO as a solvent, the final concentrations of the compounds IY210216D-1 and ID210203C-1 in HepG2 cell suspension were 0, 2, 4 and 8 μM, respectively, and the final concentrations of the compounds IY210216D-1 and ID210203C-1 in MDA-MB-468 cell suspension were 0 and 2 μM, respectively. 48 hours later, the cells were digested with trypsin and resuspended; the number of the cells in the cell suspension was counted and diluted to 5×10^5 cells/mL; after the digestion was completed, the cell suspension was centrifuged; the supernatant was discarded; the pellet was washed twice with PBS (each time the mixture was centrifuged 2000 rpm for 5 min); the supernatant was discarded; a fixative comprising 980 μL of 70% cold ethanol and 20 μL of 5% BSA (a small amount of BSA reduces cellular stress and damage) was added to each microcentrifuge tube, so that the cells were fixed overnight at 4° C.; the fixative is discarded; the cells were washed three times in PBS to remove residual fixative (each time the mixture was centrifuged at 1000 rpm for 3 min); a DNA quantification kit is used to measure the content of DNA according to the following instruction (Suo Laibao, Beijing): each sample was incubated in 100 μL of RNase A at 37° C. for 30 min; 500 μL of PI (propidium iodide) was added to each sample; each sample was incubated at room temperature for 30 min in the dark; the cell cycle was analyzed by a flow cytometry and a ModFit software; and Graphpad prism 6.0 was used to estimate the percentage of a cell population in the different phases of the cell cycle.

[4] = tested on: MDA-MB-468 cells; assay: Cell cycle distribution by flow cytometry (PI), MDA-MB-468; details: breast cancer cells (MDA-MB-468), 2 μM, 48 h, vs DMSO
Experimental: as §1

[5] = tested on: HepG2 cells; assay: Apoptosis by Annexin V-FITC/PI flow cytometry, HepG2; details: HepG2, 0, 2, 4, 8 μM, 48 h, vs control group
Experimental: (§2) The MDA-MB-468 or HepG2 cells were harvested during log phase, digested, centrifuged and prepared into a single cell suspension; the number of the cells in the cell suspension was counted; the cells were seeded into a 12-well plate, with 2×10^5 cells per well; three wells were used as a parallel control design; 16 hours after seeding, the cells were treated with the compounds.
(§3) With DMSO as a solvent, the final concentrations of the compounds IY210216D-1 and ID210203C-1 in HepG2 cell suspension were 0, 2, 4 and 8 μM, respectively, and the final concentrations of the compound IY210316B-1 in MDA-MB-468 cell suspension were 0 and 0.12 μM, respectively. […]

[6] = tested on: HepG2 liver cancer cells; assay: Q-PCR of mRNA level of cell cycle and metastasis related molecules; details: HepG2, 4 μM, 24 hours; for down-regulation of Cyclin B1 (CCNB1) mRNA level / down-regulation of Cyclin D1 (CCND1) mRNA level: relative to actin gene
Experimental: HepG2 liver cancer cells were seeded in a 6-well plate, with 1×10^6 cells per well, and treated with the compounds IY210216D-1 and ID210203C-1 (in 0 and 4 μM concentrations) for 24 h; total RNA was extracted from the HepG2 liver cancer cells by a single-step TRIzol method; the concentration and purity of the total RNA was measured; the total RNA was used as a template; and complementary DNA (cDNA) was synthesized from the RNA template according to the instruction of a reverse transcription kit (Promega); sqRT-PCR and qPCR were used to quantify the expression of the genes CCNB1, CDK1 and SQSTM; and the gene ACTB was used as an internal reference gene for gene expression normalization.
A20 μL reaction mix for qPCR contained: • 2 μL of cDNA; • 10 μL of 2×SYBR Green Supermix; • 1 μL of upstream and downstream primers; • 0.3 μL of reference dye; • 6.7 μL of water. • Each sample has three technical replicates. • Cycling conditions comprised: • pre-denaturation at 95° C. for 5 min; • denaturation at 95° C. for 15 sec; • annealing at 60° C. for 15 sec; and • extension at 72° C. for 30 sec.
After 40 cycles, the cycle […] (CT) value of the […] gene was used as an initial value in comparison with the amount of the amplified product.

[7] = tested on: MDA-MB-468 cells; assay: Apoptosis by Annexin V-FITC/PI flow cytometry, MDA-MB-468
Experimental: as §2, §3

`O=C(NCc1ccncc1)Nc1ccc(OCc2ccc(OCCN3CCCCC3)cc2)c2ccccc12` [ID210203C-1] was tested, and the “inhibitory effect on the proliferation of tumor cells” value (from here on “inhibitory effect”) [1] was “good inhibitory effects”, the “expression level of CyclinD1” value [2] was “significantly inhibit” and the “expression level of p-JAK2” value [2] was “significantly inhibit”. For the same molecule, the “expression level of p-STAT3” value [2] was “significantly inhibit”, the G1 phase ratio [3] was “significant decrease” and the G2 phase ratio [3] was “significant increase”. The G1 phase ratio [4] was “decrease”, the S phase ratio [4] was “significant increase” and the induction of apoptosis [5] was “increased apoptosis in a dose-dependent manner”. The “expression of MMP9 at mRNA level” value [6] was “down-regulating”, the “down-regulation of Cyclin B1 (CCNB1) mRNA level” value [6] was roughly 10 folds and the “down-regulation of Cyclin D1 (CCND1) mRNA level” value [6] was roughly 10 folds.

For `O=C(Nc1ccc(OCc2ccc(OCCN3CCCCC3)cc2)c2ccccc12)NC1CCOCC1` [IY210216D-1], the “inhibitory effect” value [1] was “good inhibitory effects”, the G1 phase ratio [3] was “significant decrease” and the G2 phase ratio [3] was “significant increase”. For the same molecule, the G1 phase ratio [4] was “decrease”, the S phase ratio [4] was “significant increase” and the induction of apoptosis [5] was “increased apoptosis in a dose-dependent manner”. For the same molecule, the “expression of MMP9 at mRNA level” value [6] was “down-regulating”, the “down-regulation of Cyclin B1 (CCNB1) mRNA level” value [6] was roughly 10 folds and the “down-regulation of Cyclin D1 (CCND1) mRNA level” value [6] was roughly 10 folds.

`O=C(NCc1ccccn1)Nc1ccc(OCc2ccc(OCCN3CCCCC3)cc2)c2ccccc12` [IY210316B-1, 1-(4-((4-(2-(piperidin-1-yl)ethoxy)benzyl)oxy)naphthalen-1-yl)-3-(pyridin-2-ylmethyl)urea] was tested, and the “inhibitory effect” value [1] was “good inhibitory effects”, the “apoptosis of breast cancer cells” value ([7]; 0.12 μM, 48 hours) was 43.86% and the induction of apoptosis ([7]; MDA-MB-468, 0 and 0.12 μM, 48 h, vs control group) was “increased apoptosis in a dose-dependent manner”.
